Reference: PMC2653189 (PLoS ONE, 2009)
Like-named read-outs stand apart in the source and are kept apart here.

What was measured:
[1] = system: IFN-γ-mediated Stat1 phosphorylation; assay: Immunoblot of IFN-γ-mediated Stat1 phosphorylation in HepG2 cells; assay type: cell-based, human; settings: compound 300 µM 1 hour, IFN-γ 30 ng/ml 30 min
Protocol: (§1) The human hepatocellular carcinoma cell line (HepG2) was grown in 6-well plates under standard conditions. Cells were pretreated with compounds (0, 1, 3, 10, 30, 100 and 300 µM) for 1 hour then stimulated under optimal conditions with either interleukin-6 (IL-6; 30 ng/ml for 30 min) to activate Stat3 or interferon gamma (IFN-γ; 30 ng/ml for 30 min) to activate Stat1 [28]. Cultures were then harvested and proteins extracted using high-salt buffer, as described. Briefly, extracts were mixed with 2× sodium dodecyl sulfate (SDS) sample buffer (125 mM Tris-HCL pH 6.8; 4% SDS; 20% glycerol; 10% 2-mercaptoethanol) at a 1∶1 ratio and heated for 5 minutes at 100°C. Proteins (20 µg) were separated by 7.5% SDS-PAGE and transferred to polyvinylidene fluoride (PVDF) membrane (Millipore, Waltham, MA) and immunoblotted. Prestained molecular weight markers (BioRad; Hercules, CA) were included in each gel. Membranes were probed serially with antibody against Stat1 pY701 or Stat3 pY705 followed by antibody against Stat1 or Stat3 (Transduction labs, Lexington, KY) then antibody against β–actin (Abcam, Cambridge, MA). Membranes were stripped between antibody probing using Restore™ Western Blot Stripping Buffer (Thermo Fisher Scientific Inc., Waltham, MA) per the manufacturer's instructions. Horseradish peroxidase-conjugated goat-anti-mouse IgG was used as the secondary antibody (Invitrogen Carlsbad, CA) and the membranes were developed with enhanced chemiluminescence (ECL) detection system (Amersham Life Sciences Inc.; Arlington Heights, IL.).
Figure 2 Effect of compounds on ligand-mediated Stat3 and Stat1 phosphorylation. […] Cells were then stimulated with IL-6 (30 ng/ml) for 30 min. Protein extracts of cells were separated by SDS-PAGE, blotted and developed serially with antibodies to pStat3, total Stat3 and β-actin. Blots were stripped between each antibody probing. Band intensities were quantified by densitometry. The value of each pStat3 band was divided by its corresponding total Stat3 band intensity; the results were normalized to the DMSO-treated control value. This value was plotted as a function of the log compound concentration. The best-fitting curve was determined using 4-Parameter Logistic Model/Dose Response/XLfit 4.2, IDBS software and was used to calculate the IC50 value (Table 1). Each panel is representative of 3 or more experiments. In panel G, HepG2 cells were pretreated with DMSO alone or DMSO containing each of the compounds at a concentration of 300 µM for 60 min. Cells were then stimulated with IFN-γ (30 ng/ml) for 30 min. Protein extracts of cells were separated by SDS-PAGE and immunoblotted serially with antibodies to pStat1, total Stat1 and β-actin. Blots were stripped between each immunoblotting. The results shown are representative of 2 or more experiments.

[2] = system: breast cancer cell lines tested; assay: Apoptosis assay, all breast cancer cell lines tested; assay type: cell-based, Human; settings: any of the breast cancer cell lines tested; data not shown
Protocol: Human breast carcinoma cell lines MDA-MB-468, MDA-MB-231, MBA-MD-435 and MCF7 were kindly provided by Dr. Powel H. Brown (Breast Cancer Center, Baylor College of Medicine). Breast cancer cell line, MDA-MB-453 was kindly provided by Dr. Shou Jiang (Breast Cancer Center, Baylor College of Medicine). All cell lines were grown in DMEM medium supplemented with 10% fetal bovine serum (FBS), 25,000 units penicillin G, 25,000 µg streptomycin, and 131.4 mg L-Glutamine and cultured in the incubator under the condition of 95% air, 5% CO2 at 37°C [33]. Cells were seeded at 2,500 cells/cm^2 into 12-well plates. At 80% confluency, cells were washed with PBS and supplemented with fresh medium containing compound or the topoisomerase I-inhibitor, camptothecin, at 0, 0.1, 0.3, 1, 3, 10, 30, 100, 300 µM. At 24 hours, treatment was terminated by removing the medium from each well. Cells were lysed with cell lysis buffer (600 µl for 30 minutes at 25°C). […] The percent maximum nucleosome level was calculated by dividing the nucleosome level by the maximum nucleosome level achieved in the assay and multiplying by 100. This value was plotted as a function of the log compound concentration and the best-fitting curve and EC50 value determined using 4-Parameter Logistic Model/Dose Response/XLfit 4.2, IDBS software.

MCF7 = assay: Breast cancer cell line apoptosis assay (nucleosome ELISA); assay type: cell-based; settings: Homo sapiens, 24 hr, read-out: EC50 apoptosis induction
Protocol: (§2) Human breast carcinoma cell lines MDA-MB-468, MDA-MB-231, MBA-MD-435 and MCF7 were kindly provided by Dr. Powel H. Brown (Breast Cancer Center, Baylor College of Medicine). Breast cancer cell line, MDA-MB-453 was kindly provided by Dr. Shou Jiang (Breast Cancer Center, Baylor College of Medicine). All cell lines were grown in DMEM medium supplemented with 10% fetal bovine serum (FBS), 25,000 units penicillin G, 25,000 µg streptomycin, and 131.4 mg L-Glutamine and cultured in the incubator under the condition of 95% air, 5% CO2 at 37°C [33]. Cells were seeded at 2,500 cells/cm^2 into 12-well plates. At 80% confluency, cells were washed with PBS and supplemented with fresh medium containing compound or the topoisomerase I-inhibitor, camptothecin, at 0, 0.1, 0.3, 1, 3, 10, 30, 100, 300 µM. At 24 hours, treatment was terminated by removing the medium from each well. Cells were lysed with cell lysis buffer (600 µl for 30 minutes at 25°C). Cell lysate (200 µl) was centrifuged at 200 g for 10 minutes and 20 µl of each supernatant was assayed for nucleosomes using the Cell Death Detection ELISA (Roche Applied Science) as described by the manufacturer. The percent maximum nucleosome level was calculated by dividing the nucleosome level by the maximum nucleosome level achieved in the assay and multiplying by 100. This value was plotted as a function of the log compound concentration and the best-fitting curve and EC50 value determined using 4-Parameter Logistic Model/Dose Response/XLfit 4.2, IDBS software.
(§3) Figure 5 Apoptosis induction of breast cancer cell lines by compounds; selective apoptosis of cell lines that are Stat3 dependent. MDA-MB-468 (panel A), MDA-MB-231 (panel B), MDA-MB-435 (panel C), MCF7 (panel D) and MDA-MB-453 (panel E) were seeded in 12-well plates, grown overnight then treated with the indicated compound for 24 hr. Cells were centrifuged and the supernatants assayed for nucleosome levels by ELISA. The percent maximum nucleosome level was calculated (nucleosome level ÷ maximum nucleosome level achieved in the assay ×100) and plotted as a function of the log compound concentration. The best-fitting curve was determined using 4-ParameterLogistic Model/Dose Response One Site/XLfit 4.2, IDBS software and was used to determine the EC50 value (Table 3).

MDA-MB-468 = assay: as above; assay type: cell-based; settings: Homo sapiens, 24 hr, read-out: EC50 apoptosis induction
Protocol: as §2, §3

MDA-MB-231 = assay: as above; assay type: cell-based; settings: Homo sapiens, 24 hr, read-out: EC50 apoptosis induction
Protocol: as §2, §3

MDA-MB-435 = assay: as above; assay type: cell-based; settings: Homo sapiens, 24 hr, read-out: EC50 apoptosis induction
Protocol: as §2, §3

MDA-MB-453 = assay: as above; assay type: cell-based; settings: Homo sapiens, 24 hr, read-out: EC50 apoptosis induction
Protocol: as §2, §3

[3] = system: cell lines MDA-MB-453 and MCF7; assay: Apoptosis assay, summary over the cell lines without constitutive Stat3 activity; assay type: cell-based; settings: Homo sapiens
Protocol: as §2, with “100.” for “100. This value was plotted as a function of the log compound concentration and the best-fitting curve and EC50 value determined using 4-Parameter Logistic Model/Dose Response/XLfit 4.2, IDBS software.”
as §3, with “MDA-MB-468” for “Figure 5 Apoptosis induction of breast cancer cell lines by compounds; selective apoptosis of cell lines that are Stat3 dependent. MDA-MB-468”

[4] = system: breast cancer cell lines with constitutive Stat3 activity—MDA-MB-468, MDA-MB-231 and MDA-MB-435; assay: Apoptosis assay, summary over the cell lines with constitutive Stat3 activity; assay type: cell-based; settings: Homo sapiens
Protocol: as §2, with “100.” for “100. This value was plotted as a function of the log compound concentration and the best-fitting curve and EC50 value determined using 4-Parameter Logistic Model/Dose Response/XLfit 4.2, IDBS software.”
as §3, with “MDA-MB-468” for “Figure 5 Apoptosis induction of breast cancer cell lines by compounds; selective apoptosis of cell lines that are Stat3 dependent. MDA-MB-468”

Stat3 = Stat3 (Homo sapiens, UniProt P40763); assay: Stat3/pY-peptide binding assay (SPR, BIAcore)
Sequence of Stat3 (P40763 whole entry, species assumed): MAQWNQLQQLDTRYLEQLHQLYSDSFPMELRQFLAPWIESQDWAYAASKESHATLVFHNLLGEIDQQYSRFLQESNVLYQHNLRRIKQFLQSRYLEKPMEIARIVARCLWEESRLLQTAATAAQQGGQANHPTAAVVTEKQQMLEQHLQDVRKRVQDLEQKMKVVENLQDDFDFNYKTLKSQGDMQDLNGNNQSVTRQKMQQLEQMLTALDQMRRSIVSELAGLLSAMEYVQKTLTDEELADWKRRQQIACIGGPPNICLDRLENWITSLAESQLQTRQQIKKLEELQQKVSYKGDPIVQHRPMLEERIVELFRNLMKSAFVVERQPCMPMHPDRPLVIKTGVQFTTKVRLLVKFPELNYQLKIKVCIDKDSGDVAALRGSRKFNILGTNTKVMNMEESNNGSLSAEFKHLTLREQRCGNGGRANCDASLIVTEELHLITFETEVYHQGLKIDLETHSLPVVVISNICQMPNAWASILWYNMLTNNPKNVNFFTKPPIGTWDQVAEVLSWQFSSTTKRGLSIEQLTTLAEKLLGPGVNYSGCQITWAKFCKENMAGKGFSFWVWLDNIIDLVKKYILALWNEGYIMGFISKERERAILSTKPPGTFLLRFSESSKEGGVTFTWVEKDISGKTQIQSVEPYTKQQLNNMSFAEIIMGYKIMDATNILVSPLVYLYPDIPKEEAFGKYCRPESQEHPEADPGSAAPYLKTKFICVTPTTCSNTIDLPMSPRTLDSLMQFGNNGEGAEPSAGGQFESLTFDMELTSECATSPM
Protocol: A control (Stat3 with DMSO but without compound) was run at the beginning and the end of each cycle (40 sample injections) to ensure that the integrity of the sensor chip was maintained throughout the cycle run. The average of the two controls was normalized to 100% and used to evaluate the effect of each compound on Stat3 binding. Responses were normalized by dividing the value at 2 min by the response obtained in the absence of compounds at 2 min and multiplying by 100.

[5] = system: IL-6-mediated phosphorylation of Stat3; assay: Immunoblot of IL-6-mediated Stat3 phosphorylation in HepG2 cells; assay type: cell-based; settings: Homo sapiens, compound 60 min, then IL-6 30 ng/ml 30 min, read-out: pStat3 IC50, inhibition of IL-6-mediated Stat3 phosphorylation
Protocol: as §1
Figure 2 Effect of compounds on ligand-mediated Stat3 and Stat1 phosphorylation. […] Cells were then stimulated with IL-6 (30 ng/ml) for 30 min. Protein extracts of cells were separated by SDS-PAGE, blotted and developed serially with antibodies to pStat3, total Stat3 and β-actin. Blots were stripped between each antibody probing. Band intensities were quantified by densitometry. […] The best-fitting curve was determined using 4-Parameter Logistic Model/Dose Response/XLfit 4.2, IDBS software and was used to calculate the IC50 value (Table 1). […]

[6] = system: IL-6-mediated Stat3 nuclear translocation (GFP-Stat3α); assay: HTFM nuclear translocation assay in MEF/GFP-Stat3α cells; assay type: cell-based, murine
Protocol: Confocal and high-throughput fluorescence microscopy (HTFM) of MEF/GFP-Stat3α cells were performed as described. Briefly, for confocal fluorescence microscopy, cells were grown in 6-well plates containing a cover slip. For HTFM, cells were seeded into 96-well CC3 plates at a density of 5,000 cells/well using an automated plating system. Cells were cultured under standard conditions until 85–90% confluent. Cells were pre-treated with compound for 1 hour at 37°C then stimulated with IL-6 (200 ng/ml) and IL-6sR (250 ng/ml) for 30 minutes to provide optimal Stat3 activation and nuclear translocation in these cells, as described. Cells were fixed with 4% formaldehyde in PEM Buffer (80 mM Potassium PIPES, pH 6.8, 5 mM EGTA pH 7.0, 2 mM MgCl2) for 30 minutes at 4°C, quenched in 1 mg/ml of NaBH4 (Sigma) in PEM buffer and counterstained for 1 min in 4,6-diamidino-2-phenylindole (DAPI; Sigma; 1 mg/ml) in PEM buffer. Cover slips were examined by confocal fluorescent microscopy. Plates were analyzed by automated HTFM using the Cell Lab IC Image Cytometer (IC100) platform and Cytoshop Version 2.1 analysis software (Beckman Coulter). Nuclear translocation is quantified by using the fraction localized in the nucleus (FLIN) measurement. FLIN values were normalized by subtracting the FLIN for unstimulated cells then dividing this difference by the maximum difference (delta, Δ) in FLIN (FLIN in cells stimulated with IL-6/sIL-6R in the absence of compound minus FLIN of unstimulated cells). This ratio was multiplied by 100 to obtain the percentage of maximum difference in FLIN and was plotted, where indicated, as a function of the log compound concentration. The best-fitting curve and IC50 value were determined using 4-Parameter Logistic Model/Dose Response/XLfit 4.2, IDBS software.
Figure 4 Inhibition of cytoplasmic-to-nuclear translocation of Stat3 assessed by confocal and high-throughput fluorescence microscopy (HTFM). […] Coverslips were examined by confocal fluorescent microscopy using filters to detect GFP (column one), DAPI (column two) or both (merge; column three). In panel B, MEF-GFP-Stat3 cells were grown in 96-well plates with optical glass bottoms and pre-treated with the indicated compound at the indicated concentrations in quadruplicate for 1 hour then stimulated with IL-6 (200 ng/ml) and IL-6sR (250 ng/ml) for 30 minutes. Cells were fixed and the plates were examined by high-throughput microscopy to determine the fluorescence intensity in the nucleus (FLIN). The percent of maximum change (delta, Δ) in FLIN was calculated as described in the Methods and plotted as a function of the log of the compound concentration. […] Best-fit curves were determined using 4-Parameter Logistic Model/Dose Response/XLfit 4.2, IDBS software and were used to calculate the IC50 values (Table 2).

[7] = 24 hr, read-out: EC50 apoptosis induction, range over three cell lines

SMILES: COC(=O)Cc1c(C)c2ccc(OCc3ccc(C(=O)OC)cc3)c(C)c2oc1=O [Cpd3-7, methyl 4-({[3-(2-methoxy-2-oxoethyl)-4,8-dimethyl-2-oxo-2H-chromen-7-yl]oxy}methyl)benzoate]
- Block of IFN-γ-stimulated Stat1 phosphorylation [1]: did not
- Apoptosis induction (in words) [2]: neither Cpd3-2 nor Cpd3-7 induced apoptosis

SMILES: CCN1C(=O)C(=Cc2ccc(-c3ccc(C(=O)O)cc3)o2)SC1=S [Cpd30, 4-{5-[(3-ethyl-4-oxo-2-thioxo-1,3-thiazolidin-5-ylidene)methyl]-2-furyl}benzoic acid]
- Block of IFN-γ-stimulated Stat1 phosphorylation [1]: did not
- EC50 (MCF7): > 300 µM
- EC50 (MDA-MB-468): 6.42 µM
- EC50 (MDA-MB-231): 92 µM
- EC50 (MDA-MB-435): 16.3 µM
- EC50 (MDA-MB-453): > 300 µM
- EC50 ([3]; concentrations up to 300 µM, read-out: EC50 apoptosis induction, MDA-MB-453 and MCF7): > 300 µM
- EC50 [4, 7]: 6.4 to 92.2 µM

SMILES: CCN1C(=O)C(=Cc2ccc(-c3cc(C(=O)O)ccc3Cl)o2)C(=O)N(CC)C1=S [Cpd30-12, 4-chloro-3-{5-[(1,3-diethyl-4,6-dioxo-2-thioxotetrahydro-5(2H)-pyrimidinylidene)methyl]-2-furyl}benzoic acid]
- Block of IFN-γ-stimulated Stat1 phosphorylation [1]: blocked Stat1 phosphorylation
- IC50 (Stat3): 114 µM
- IC50 [5]: 60 µM
- IC50 ([6]; Mus musculus, compound 1 hour, then IL-6 200 ng/ml and IL-6sR 250 ng/ml 30 min, read-out: HTFM IC50, inhibition of IL-6-mediated Stat3 nuclear translocation): > 300 µM
- Block of ligand-mediated nuclear translocation of GFP-Stat3α (in words) ([6]; preincubation with compound): not

SMILES: O=C(O)CSc1cc(NS(=O)(=O)c2ccc(C(=O)O)cc2)c2ccccc2c1O [Cpd188, 4-[({3-[(carboxymethyl)thio]-4-hydroxy-1-naphthyl}amino)sulfonyl]benzoic acid]
- Block of IFN-γ-stimulated Stat1 phosphorylation [1]: did not
- EC50 (MCF7): 17.2 µM
- EC50 (MDA-MB-468): 0.73 µM
- EC50 (MDA-MB-231): 3.96 µM
- EC50 (MDA-MB-435): 7.01 µM
- EC50 (MDA-MB-453): 15.5 µM
- EC50 ([3]; read-out: EC50 apoptosis induction, mean±SD over MDA-MB-453 and MCF7): 16.4 ± 1.2 µM
- EC50 [4, 7]: 0.7 to 7 µM
- EC50 ([4]; read-out: EC50 apoptosis induction, mean±SD over three cell lines): 3.9 ± 3.1 µM
